Results as given in patent US11325907B2, “Crystal form of 1H-imidazo[4,5-b]pyridine-2(3H)-one compound and preparation process therefor” (MEDSHINE DISCOVERY INC., priority 2018, dated 2022).

Tests used:
[1] = tested on: collagen-induced arthritis in mice; assay: In vivo CIA model (collagen-induced arthritis); design: species or system DBA/1 mice; Average clinical symptom score: dose or concentration left out as unconfirmed; key to Total pathological score (both hind limbs): each of 4 joint-damage aspects scored 0-4, summed over both hind limbs; conditions: for Total pathological score (both hind limbs): day 38, Mean±SEM
Excerpt: A series of symptoms similar to human psoriatic arthritis, such as redness and swelling of the joint, articular cartilage damage, and capsula articularis damage are elicited in the model by injection of type II collagen to activate reactivity of B cells, T cell on bone collagen, and the activated B cells and T cells enter the joints to cause joint inflammation. During pre-clinical evaluation of candidate compounds for treating psoriatic arthritis, collagen-induced arthritis in mice is often used to evaluate the effectiveness.
The purpose of this experiment was to study the therapeutic effect of Compound 1 on collagen-induced arthritis in mice, so as to provide preclinical pharmacodynamic relevant information for subsequent clinical studies.
1. Type II collagen/complete Freund's adjuvant immunization
Preparation of acetic acid: Diluting acetic acid to 100 mM, which was filtered with 0.22 um filter membrane and stored at 4° C.
Bovine type II collagen solution: Dissolving bovine type II collagen (CII) in acetic acid solution, which was stored at 4° C. overnight.
Preparation of emulsion: Mixing the CII solution stored overnight with equal volume of the complete Freund's adjuvant and homogenize the mixture with high-speed homogenizer until the solution formed a stable emulsion.
Preparation of lipopolysaccharide (LPS): Weighing LPS, adding normal saline, and mixing until a stable solution with concentration of […] was formed.
The mice were randomly assigned to different treatment groups. The day of the first immunization was recorded as day 0, and the subsequent days were marked sequentially.
After DBA/1 mice were anesthetized with isoflurane, the prepared collagen emulsion was injected subcutaneously in the tail.
On day 23, 100 μl of LPS solution was injected intraperitoneally.
On day 27, when the average clinical score reached about 1, 60 mice with moderate onset were selected, and they were re-randomized according to body weight and score, with 10 mice in each group.
Dexamethasone as positive control drug in 0.3 mg/kg dose group is commonly used in the CIA model. In addition, the relevant dose design of Compound 1 and the control compound Apremilast were determined according to the results of earlier preliminary experiments. Group 1 was normal mice without any treatment; Group 2 was vehicle control group and was administered vehicle; Group 3 was administered dexamethasone at a dose of 0.3 mg/kg; Group 4 was administered Apremilast at a dose of 5 mg/kg; Group 5, Group 6, and Group 7 were administered Compound 1 with doses of 0.3, 1, and 3 mg/kg, respectively. Administration was given once a day for 11 days in total. The volume of intragastric administration was 10 ml/kg.
Clinical observation: From 7 days before immunization to 23 days after immunization, the basic health status and body weight changes of DBA/1 mice were observed daily (recorded once a week). After the 23rd day, the health status, morbidity and body weight change of the mice were observed daily (recorded at least three times a week) until the end of the experiment.
Clinical score: After LPS injection, the morbidities of mice were observed every day. After the onset of disease in mice (clinical symptoms of arthritis), they were scored according to severity of conditions (redness and swelling, joint deformation) according to 0-4 point standard, with a maximum score of 4 for each limb, and a maximum score of 16 for each animal. At least three times of scoring were performed a week.
Pathology: On day 38, the mouse was euthanized. The two posterior limbs of the mouse were taken, soaked with 10% formalin solution, decalcified with formic acid solution, embedded with paraffin, sectioned, stained with hematoxylin-eosin (HE), and observed with photomicrography. The degree of joint damage was evaluated in four aspects: inflammatory cell infiltration, pannus formation, cartilage injury and bone resorption, and scored according to 0-4 score standard. […]

[2] = target: T1, phosphodiesterase 4B subtype (PDE4B) (Homo sapiens, UniProt Q07343); assay: Inhibitory activity on PDE4B enzyme (fluorescence polarization); format: biochemical
T1 construct: amino acid 305 terminal; GST (N); made in house; host or cells: Sf9 insect cells (baculovirus)
Method: This biological experiment based on fluorescence polarization was used to determine AMP/GMP expression, that is, to show enzyme activity by tracking AMP/GMP antibody binding.
Experimental buffer solution: 10 mM Trihydroxymethyl aminomethane-hydrochloric acid buffer solution (Tris-HCl) (pH 7.5), 5 mM MgCl2, 0.01% Polyoxyethylene lauryl ether (Brij 35), 1 mM Dithiothreitol (DTT), and 1% DMSO.
Enzymes: Recombinant humanized PDE4B (Genebank Accession Number NM_002600; amino acid 305 terminal) was expressed with baculovirus in Sf9 insect cells using N-terminal GST tag. MW=78 kDa.
Enzyme substrate: 1 μM cAMP
Detection: Transcreener®AMP2/GMP2 antibody and AMP2/ GMP2 AlexaFluor633 tracing.
• 1. Dissolving the recombinant human PDE4B enzyme and enzyme substrate (1 μM cAMP) in freshly prepared experimental buffer; • 2. Transferring the above PDE4B enzyme buffer solution to reaction wells; • 3. Adding Compound 1 dissolved with 100% DMSO to the reaction well with PDE4B enzyme buffer solution via acoustic technology (echo 550 nanoliter range) and incubating for 10 min at room temperature; • 4. […] The range of fluorescence polarization determination is Ex/Em=620/688.
Data Analysis: The fluorescence polarization signal was converted into nM according to the AMP/GMP standard curve and the control % enzyme activity relative to the DMSO calculated by Excel software. […]

[3] = tested on: TNFα production in human peripheral blood mononuclear cells (hPBMC); assay: Inhibition of LPS-induced TNFα production in hPBMC; format: cell-based
Method: The inhibitory activity of Compound 1 of lipopolysaccharide (LPS)-induced TNFα production in human peripheral blood mononuclear cells.
• 1. Collecting normal human whole blood, which was anticoagulated with EDTA-K2 anticoagulation tube; • 2. Separating PBMC with Ficoll density gradient centrifugation, counting and adjusting the cell concentration to 2×10^6/mL; • 3. To U-bottom 96-well plate were added 2×10^5 cells/well, LPS 1 ng/mL was added, various concentrations of compound at 100 μM, 10 μM, 1 μM, 100 nM, 10 nM, 1 nM, 100 pM, 10 pM, 200 μl system/well, in duplicated wells; • 4. Incubating for 24 h, collecting the supernatant; • 5. Detecting the level of TNFα in supernatant with ELISA, fitting the inhibition curve and calculating IC50 with Graphpad Prism software.

[4] = Mus musculus, po, 264 h, 0.3 mg/kg gavage once a day for 11 days, read-out: Inhibition rate of area under the clinical score curve (AUC) relative to vehicle control group

T1 sequence (Q07343 305-736 limits assumed): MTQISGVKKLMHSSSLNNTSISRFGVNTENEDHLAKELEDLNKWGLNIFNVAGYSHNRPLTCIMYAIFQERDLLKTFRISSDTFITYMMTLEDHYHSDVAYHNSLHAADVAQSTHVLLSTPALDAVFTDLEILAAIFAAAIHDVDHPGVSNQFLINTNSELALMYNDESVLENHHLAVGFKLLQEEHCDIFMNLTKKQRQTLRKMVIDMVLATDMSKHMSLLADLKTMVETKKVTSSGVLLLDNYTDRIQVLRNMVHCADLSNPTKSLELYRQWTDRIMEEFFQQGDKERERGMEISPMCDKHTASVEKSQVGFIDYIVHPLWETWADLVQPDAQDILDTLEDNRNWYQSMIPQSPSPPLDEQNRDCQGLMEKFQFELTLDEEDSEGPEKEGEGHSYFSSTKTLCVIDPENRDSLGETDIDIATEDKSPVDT

Q: With CCOc1cc([C@@H](CS(C)(=O)=O)N2C(=O)c3cccc(NC(C)=O)c3C2=O)ccc1OC [Apremilast, reference compound] as the compound, how does the “Decrease of average clinical symptom score compared to vehicle control group” value ([1]; 5 mg/kg gavage once a day for 11 days, 37th day, p<0.001) read?
A: 3.7

Q: And the “Total pathological score (both hind limbs)” value (from here on “Total pathological score”) ([1]; 5 mg/kg gavage once a day for 11 days, p<0.05 vs vehicle)?
A: 13.90±1.89

Q: What about the inhibition at 5 mg/kg ([1]; Mus musculus, po, 264 h, 5 mg/kg gavage once a day for 11 days, read-out: Inhibition rate of area under the clinical score curve (AUC) relative to vehicle control group) of the same compound?
A: 41.3%

Q: What about the “Average clinical symptom score” value ([1]; gavage once a day for 11 days, 37th day) of the same compound?
A: 4.2

Q: How did the “In vitro activity of inhibiting PDE4B (conclusion)” value [2] turn out when CCOc1cc([C@@H](CS(C)(=O)=O)n2c(=O)[nH]c3c(C)c(-c4ccccc4F)cnc32)ccc1OC [Compound 1] was run?
A: excellent in vitro activity

Q: What about the “In vitro activity of inhibiting TNFα production in hPBMC (conclusion)” value [3] of the same compound?
A: excellent in vitro activity

Q: What about the IC50 ([3]; Homo sapiens, PBMC, LPS 1 ng/mL, 24 h, TNFα in supernatant by ELISA) of the same compound?
A: 0.56 nM

Q: And the Clinical average score ([1]; 0.3 mg/kg gavage once a day for 11 days, 37th day, p<0.0001 vs vehicle)?
A: 3.6

Q: What about the “Arthritis pathology (conclusion)” value ([1]; 1 mg/kg and 3 mg/kg dose groups) of the same compound?
A: significant improvement

Q: What about the Clinical average score ([1]; 1 mg/kg gavage once a day for 11 days, 37th day, p<0.001 vs vehicle) of the same compound?
A: 4.3

Q: And the “Total pathological score” value ([1]; 1 mg/kg gavage once a day for 11 days, p<0.05 vs vehicle)?
A: 14.00±2.43

Q: And the Clinical average score ([1]; 3 mg/kg gavage once a day for 11 days, 37th day, p<0.0001 vs vehicle)?
A: 3.5

Q: And the “Total pathological score” value ([1]; 3 mg/kg gavage once a day for 11 days, p<0.0001 vs vehicle)?
A: 9.20±1.83

Q: What about the “Therapeutic effect (clinical score and arthritis pathological score) compared with Apremilast” value ([1]; Compound 1 at 3 mg/kg vs Apremilast at 5 mg/kg) of the same compound?
A: better than that of Apremilast at 5 mg/kg

Q: What about the inhibition at 0.3 mg/kg [1, 4] of the same compound?
A: 43.9%

Q: What about the inhibition at 1 mg/kg ([1]; Mus musculus, po, 264 h, 1 mg/kg gavage once a day for 11 days, read-out: Inhibition rate of area under the clinical score curve (AUC) relative to vehicle control group) of the same compound?
A: 39.4%

Q: And the inhibition at 3 mg/kg ([1]; Mus musculus, po, 264 h, 3 mg/kg gavage once a day for 11 days, read-out: Inhibition rate of area under the clinical score curve (AUC) relative to vehicle control group)?
A: 51.7%

Q: What about the “Symptoms of the collagen-induced arthritis (conclusion)” value ([1]; three dose groups of 0.3, 1 and 3 mg/kg) of the same compound?
A: significantly improved

Q: What does the source list for C[C@@H]1C[C@H]2[C@@H]3CCC4=CC(=O)C=C[C@]4(C)[C@@]3(F)[C@@H](O)C[C@]2(C)[C@@]1(O)C(=O)CO [Dexamethasone, reference compound]?
A: Clinical score ([1]; 0.3 mg/kg gavage once a day, from the 30th day until the end of the experiment, p<0.0001 vs vehicle): 0; inhibition at 0.3 mg/kg [1, 4]: 96.4%
